In series [1] the target is T1, rapidly delayed rectifier potassium channel current (IKr) (Cavia porcellus, UniProt O08703).
T1 construct: the Guinea pig myocardial cells are separated with enzymolysis; endogenous in cells; host or cells: freshly isolated guinea pig ventricular myocytes
T1 sequence (O08703 1-1294): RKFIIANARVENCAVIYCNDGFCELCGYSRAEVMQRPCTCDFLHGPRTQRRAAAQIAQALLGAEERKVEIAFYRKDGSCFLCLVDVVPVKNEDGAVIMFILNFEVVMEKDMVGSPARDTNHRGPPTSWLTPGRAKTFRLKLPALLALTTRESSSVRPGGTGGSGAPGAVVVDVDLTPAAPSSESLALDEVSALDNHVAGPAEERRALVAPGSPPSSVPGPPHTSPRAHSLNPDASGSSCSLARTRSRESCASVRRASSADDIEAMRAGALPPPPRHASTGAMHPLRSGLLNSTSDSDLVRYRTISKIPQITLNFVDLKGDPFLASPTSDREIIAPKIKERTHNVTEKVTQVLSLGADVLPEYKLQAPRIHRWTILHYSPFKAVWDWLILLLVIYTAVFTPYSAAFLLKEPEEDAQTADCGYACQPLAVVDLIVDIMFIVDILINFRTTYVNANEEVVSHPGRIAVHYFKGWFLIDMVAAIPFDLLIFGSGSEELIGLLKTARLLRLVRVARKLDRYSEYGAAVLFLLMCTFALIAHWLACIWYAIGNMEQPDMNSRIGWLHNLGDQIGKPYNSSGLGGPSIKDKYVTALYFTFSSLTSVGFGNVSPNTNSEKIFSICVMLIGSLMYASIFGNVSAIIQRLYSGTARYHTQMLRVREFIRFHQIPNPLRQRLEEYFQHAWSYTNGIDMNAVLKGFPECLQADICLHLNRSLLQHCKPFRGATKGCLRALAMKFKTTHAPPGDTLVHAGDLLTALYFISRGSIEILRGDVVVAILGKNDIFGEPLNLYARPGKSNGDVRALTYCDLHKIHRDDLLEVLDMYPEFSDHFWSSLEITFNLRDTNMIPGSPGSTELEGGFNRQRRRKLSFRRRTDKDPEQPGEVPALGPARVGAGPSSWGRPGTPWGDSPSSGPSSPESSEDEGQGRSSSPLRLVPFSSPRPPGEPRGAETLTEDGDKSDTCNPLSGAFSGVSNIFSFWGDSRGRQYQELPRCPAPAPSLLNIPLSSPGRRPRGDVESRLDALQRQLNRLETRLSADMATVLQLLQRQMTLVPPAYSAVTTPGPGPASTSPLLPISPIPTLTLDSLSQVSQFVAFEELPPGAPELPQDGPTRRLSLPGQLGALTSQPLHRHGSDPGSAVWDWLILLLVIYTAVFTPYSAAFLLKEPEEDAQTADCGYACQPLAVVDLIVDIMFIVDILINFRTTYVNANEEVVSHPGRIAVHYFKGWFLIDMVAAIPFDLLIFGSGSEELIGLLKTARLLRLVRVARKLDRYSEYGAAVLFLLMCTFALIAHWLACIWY
As to the kind of experiment: whole cell patch clamp on isolated Guinea pig myocardial cells, IKr. In kind it is cell-based. As to conditions: Guinea pig ventricular myocytes, current recorded 10 min after administration, 25-30° C. As for the experimental part:
(§1) Experimental title: using vitro pachynsis myocardial cells of Guinea pig, the activity is determined by the whole cell membrane Patch clamp technology.
(§2) experimental mechanism: the Guinea pig myocardial cells are separated with enzymolysis, and the rapid activation component and the slowly activation component of the delayed commutating current in the cardiac muscle cells are recorded by whole cell membrane Patch clamp. Each compound is added to the perfuse liquid for measuring current after dissolved at least 10 min. The collected data is analyzed in pulse-fit, the IC50 value for IKr and IKs of each compound is calculated.
(§3) animals: Guinea pigs, male, weight 300-400 g.
(§4) solution: calcium free Tyrode's solution
(§5) pole inner solution (mmol/L): KCl 140, MgCl2 1.0, K2-ATP 4.0, EGTA 10, HEPES 5.0, pH=7.2
(§6) Experimental apparatus: Patch clamp magnifier (EPC-10, Germany), inverted microscope (TE-2000U, Nikon, Japan), microelectrode puller (PIP5, Germany), micro-manipulator (PCS-5000, Burleigh, USA).
(§7) Then, the hearts are taken off, their ventricle are cut to smash and incubated in fresh enzyme solution at 37° C., the solution is gently stirred for 5-10 min, pouring off the supernatant fluid, diluted with Tyrode's solution containing CaCl2 1 mmol/L, that is for the first cell stored liquor; with the same operation to obtain the second and the third cell storages. […] The cells are laid for 2 h before use.
(§8) the cell liquor is put into the cell pool, after the cells adhering to the wall, they are perfused with outer liquor of the cells at the rate of 2 ml/min, cells that having calcium resistance and clear transverse striations are to be selected, the poles are moved to the cell surface by tridimensional manipulator. The high resistance block are formed between the pole top and the cell surface by under pressure, and more over using reduced pressure to broking cell membrane, the pole inner liquor can be connected to the cell inner liquor so as to form the whole cell state. After the compensation to the capacitance and series impedance compensation the voltage tongs are recorded. The signal is led by Ag/AgCl pole and magnified by the Patch clamp magnifier, the computer dispenses presetting stimulate pulse by procedure and add to cells, and the electrical signal generated from cells is translated by transducer, and stored in computer. All of the stimulate signal control, electric current, data sampling and analyses are carried out by pulse V8.60. Azimilide is used as positive drugs in the research. Each test compound is dissolved in anhydrous ethanol, diluted to the same concentration by water, and added to outer cell liquor, the top concentration of ethanol is 0.1%.
(§9) Stimulate parameter: the record of IKr and IKS: the back value of the either current is recorded. Using extra-cellular fluid containing 0.1 mmol/L CdCl2 for perfusion, sustaining the voltage at −50 mV, depolarized to 60 mV, keeping for 500 ms, and sustaining the voltage at −50 mV, keeping for 1000 ms, recording IKr; and then binding the voltage at −50 mV for 1000 ms, recording IKs.
Background: In patch-clamp work, channel activity is measured electrically.

Series [2] addresses T2, slowly delayed rectifier potassium channel current (IKs) (Cavia porcellus, UniProt O70344).
T2 construct: the Guinea pig myocardial cells are separated with enzymolysis; endogenous in cells; host or cells: freshly isolated guinea pig ventricular myocytes
T2 sequence (O70344 1-671): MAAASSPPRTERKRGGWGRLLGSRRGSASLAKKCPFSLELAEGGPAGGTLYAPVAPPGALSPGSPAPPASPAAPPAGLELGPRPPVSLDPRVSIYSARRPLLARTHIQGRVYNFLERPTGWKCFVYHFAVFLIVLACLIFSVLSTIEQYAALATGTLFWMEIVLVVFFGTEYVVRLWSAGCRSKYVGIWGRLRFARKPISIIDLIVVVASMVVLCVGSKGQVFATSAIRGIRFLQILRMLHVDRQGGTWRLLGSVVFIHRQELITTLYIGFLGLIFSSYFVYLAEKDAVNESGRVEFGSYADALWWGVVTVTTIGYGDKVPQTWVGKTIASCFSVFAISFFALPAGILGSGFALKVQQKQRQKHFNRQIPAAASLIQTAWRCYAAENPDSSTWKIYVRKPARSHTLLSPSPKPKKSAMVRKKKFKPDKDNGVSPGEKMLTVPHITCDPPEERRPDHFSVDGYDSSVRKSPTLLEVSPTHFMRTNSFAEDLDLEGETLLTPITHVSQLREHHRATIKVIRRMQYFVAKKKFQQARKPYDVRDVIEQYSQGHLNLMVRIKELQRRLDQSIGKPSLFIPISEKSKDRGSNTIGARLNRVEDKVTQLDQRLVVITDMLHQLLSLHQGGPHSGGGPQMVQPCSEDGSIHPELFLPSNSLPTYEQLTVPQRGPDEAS
T2 sequence (P41686 1-245 partner): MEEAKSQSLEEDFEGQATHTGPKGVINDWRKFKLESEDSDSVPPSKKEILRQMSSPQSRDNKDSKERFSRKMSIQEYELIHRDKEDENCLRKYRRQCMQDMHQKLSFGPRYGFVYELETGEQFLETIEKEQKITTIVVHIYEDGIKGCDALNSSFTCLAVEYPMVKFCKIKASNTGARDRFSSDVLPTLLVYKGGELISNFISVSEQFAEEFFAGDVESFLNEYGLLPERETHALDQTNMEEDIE
As to the kind of experiment: whole cell patch clamp on isolated Guinea pig myocardial cells, IKs. Format: cell-based. As to conditions: Guinea pig ventricular myocytes, current recorded 10 min after administration, 25-30° C. As to the method: as §1, §2, §3, §4, §5, §6, §7, §8, §9

For five compounds, IC50 and melting point results are on record in US7772230B2, “Chroman compound, processes for its preparation, and its pharmaceutical use” (China Pharmaceutical University, priority 2006, dated 2010).

What is called IC50 is the concentration that gives 50% inhibition. A lower IC50 goes with higher potency. A word on the melting point: it is the temperature of the solid-liquid transition. As to `CCCCOc1ccc2c(c1)/C(=N/N1CC(=O)N(CCCCN3CCN(C)CC3)C1=O)CCO2.O=C(O)/C=C/C(=O)O` [Ib example 4, 1-[4-(2,3-dihydro-6-butoxy)benzopyran]imino-3-[4-(methyl-1-piperazine)butyl]-2,4-imidazole dione difumarate], the melting point lay within 208 to 210 °C. Also, the concentration for half-maximal inhibition (IC50) in series [1] is 180 nM. The same compound registered an IC50 in series [2] of 22 nM.

`CN1CCN(CCCCN2C(=O)CN(/N=C3\CCOc4ccc(C(N)=O)cc43)C2=O)CC1.O=C(O)/C=C/C(=O)O` [Ia example 4, 1-[4-(2,3-dihydro-6-carbamoyl)benzopyran]imino-3-[4-(methyl-1-piperazine)butyl]-2,4-imidazole dione difumarate] returned a melting point of 192 to 194 °C. The compound further had a half-maximal inhibitory concentration (IC50) in series [1] of 450 nM. Also, the half-inhibitory concentration (IC50) in series [2] stood at 330 nM.

As to `COc1ccc2c(c1)/C(=N/N1CC(=O)N(CCCCN3CCN(C)CC3)C1=O)CCO2.O=C(O)/C=C/C(=O)O` [Ia example 1, 1-[4-(2,3-dihydro-6-methoxy)benzopyran]imino-3-[4-(methyl-1-piperazine)butyl]-2,4-imidazole dione difumarate], the melting point lay within 208 to 210 °C. The compound further gave an IC50 in series [1] of 1010 nM. Also, in series [2], the IC50 stood at 650 nM.

`CCCOc1ccc2c(c1)/C(=N/N1CC(=O)N(CCCCN3CCN(C)CC3)C1=O)CCO2.O=C(O)/C=C/C(=O)O` [Ib example 3, 1-[4-(2,3-dihydro-6-propoxy-)benzopyran]imino-3-[4-(methyl-1-piperazine)butyl]-2,4-imidazole dione difumarate] came in with a melting point of 218 to 220 °C. This compound also came in with an IC50 in series [1] of 11800 nM. Also, the 50% inhibitory concentration (IC50) in series [2] worked out at 1280 nM.

`CN1CCN(CCCCN2C(=O)CN(/N=C3\CCOc4ccc(Cl)cc43)C2=O)CC1.O=C(O)/C=C/C(=O)O` [Ia example 2, 1-[4-(2,3-dihydro-6-chloro)benzopyran]imino-3-[4-(methyl-1-piperazine)butyl]-2,4-imidazole dione difumarate]: the melting point lay within 230 to 232 °C. Further, the IC50 in series [1] is 4700 nM. In series [2], this compound returned a concentration for half-maximal inhibition (IC50) of 73 nM.
